The C3SDB collision cross section collection

Details: [M+H-H2O]+; instrument: TW; calibrated with polyalanine and drug standards

SMILES	collision cross section (N2)
CC(C)CCC[C@@H](C)[C@H]1CC[C@H]2[C@@H]3CC[C@H]4C[C@@H](O)CC[C@]4(C)[C@H]3CC[C@]12C [5alpha-CHOLESTANOL]	209 Å²

Same assay, conditions: [M+H]+; instrument: TW; calibrated with polyalanine and drug standards

SMILES	collision cross section (N2)
NC(=O)c1cccnc1 [NIACINAMIDE]	121.7 Å²
CCCNC(=O)NS(=O)(=O)c1ccc(Cl)cc1 [CHLORPROPAMIDE]	158.5 Å²
CC(=O)Nc1ccc(S(=O)(=O)Nc2ccc([N+](=O)[O-])cc2)cc1 [SULFANITRAN]	173.2 Å²
CC[C@H]1OC(=O)C[C@@H](O)[C@H](C)[C@@H](O[C@@H]2O[C@H](C)[C@@H](O)[C@H](N(C)C)[C@H]2O)[C@@H](CCN2C[C@H](C)C[C@H](C)C2)C[C@@H](C)C(=O)/C=C/C(C)=C/[C@@H]1CO[C@@H]1O[C@H](C)[C@@H](O)[C@@H](OC)[C@H]1OC [TILMICOSIN]	310.2 Å²
CO[C@H]1[C@H](O)[C@H](O[C@H]2CC[C@@]3(C=O)[C@H](CC[C@@H]4[C@@H]3CC[C@]3(C)[C@@H](C5=CC(=O)OC5)CC[C@]43O)C2)O[C@@H](C)[C@@H]1O [PERUVOSIDE]	239.4 Å²
CC1(C)O[C@@H]2C[C@H]3[C@@H]4C[C@H](F)C5=CC(=O)CC[C@]5(C)[C@H]4[C@@H](O)C[C@]3(C)[C@]2(C(=O)CO)O1 [FLURANDRENOLIDE]	201.2 Å²
COc1cc2c(cc1OC)[C@@H]1C(=O)c3ccc4c(c3O[C@@H]1CO2)C=CC(C)(C)O4 [DEGUELIN(-)]	194.2 Å²
Cc1ncc([N+](=O)[O-])n1CC(C)O (stereo unspecified) [SECNIDAZOLE]	135.2 Å²
COc1cc([C@H]2Oc3cc([C@H]4Oc5cc(O)cc(O)c5C(=O)[C@@H]4O)ccc3O[C@@H]2CO)ccc1O [SILIBININ]	213.6 Å²
NC(=O)N/N=C/c1ccc([N+](=O)[O-])o1 [NITROFURAZONE]	138.6 Å²
COc1ccc(C(=O)CC(=O)O)c2c1C=CC(C)(C)O2 [URSINOIC ACID]	159.4 Å²
CC(C)=CCOc1cc2oc(=O)ccc2cc1O [PRENYLETIN]	153.5 Å²
CC(=O)Oc1ccc(C(c2ccc(OC(C)=O)cc2)c2ccccn2)cc1 [BISACODYL]	193.3 Å²
NC(=O)c1ccc(N)nc1 [6-AMINONICOTINAMIDE]	125.7 Å²
Cc1ncc([N+](=O)[O-])n1CC(O)CCl (stereo unspecified) [ORNIDAZOLE]	141.7 Å²
CC1=C(C(=O)O)N2C(=O)[C@@H](NC(=O)[C@H](N)c3ccc(O)cc3)[C@H]2SC1 [CEFADROXIL]	183.1 Å²
Nc1c2ccccc2nc2ccccc12 [AMINACRINE]	136.8 Å²
C=CCc1cc(OC)c2c(c1OC)OCO2 [APIOLE]	146.1 Å²
CC(=O)CC(c1ccccc1)c1c(O)c2ccccc2oc1=O (stereo unspecified) [WARFARIN]	165.9 Å²
C[C@]12C=CC(=O)C=C1CC[C@@H]1[C@@H]2[C@@H](O)C[C@@]2(C)[C@H]1CC[C@]2(O)C(=O)CO [PREDNISOLONE]	183.7 Å²

SMILES	collision cross section (N2)
CC1(C)[C@@H](O)CC[C@]2(C)[C@H]3C(=O)C=C4[C@@H]5C[C@@](C)(C(=O)O)CC[C@]5(C)CC[C@@]4(C)[C@]3(C)CC[C@@H]12 [ENOXOLONE]	213.9 Å²
COc1cnc(NS(=O)(=O)c2ccc(N)cc2)nc1 [SULFAMETER]	159 Å²
N#Cc1ccc2c(c1)N(CCCN1CCC(O)CC1)c1ccccc1S2 [PERICIAZINE]	186.6 Å²
CC[C@@]1(O)C(=O)OCc2c1cc1n(c2=O)Cc2cc3ccccc3nc2-1 [CAMPTOTHECIN]	181.9 Å²
O=c1cc(-c2cc(O)c(O)c(O)c2)oc2cc(O)cc(O)c12 [HIERACIN]	163.4 Å²
CC1=NS(=O)(=O)c2cc(Cl)ccc2N1 [DIAZOXIDE]	143.7 Å²
CC1Cc2ccccc2N1NC(=O)c1ccc(Cl)c(S(N)(=O)=O)c1 (stereo unspecified) [INDAPAMIDE]	184.6 Å²
C=C[C@@](C)(O)CCC1C(=C)C[C@H](O)C2C(C)(C)CCCC12C (stereo partly specified) [LARIXOL]	176.2 Å²
COc1ccc2c(c1OC)C(=O)O[C@@H]2[C@H]1c2cc3c(cc2CCN1C)OCO3 [HYDRASTINE (1R, 9S)]	186.3 Å²
[O-][n+]1cccc(CO)c1 [MEPIROXOL]	120.4 Å²
COc1ccc(-c2cc(=O)c3c(O)c(OC)c(OC)c(OC)c3o2)cc1OC [DEMETHYLNOBILETIN]	186.6 Å²
CN(C)C(=S)SSC(=S)N(C)C [THIRAM]	148.4 Å²
Cc1c2oc3c(C)ccc(C(=O)N[C@@H]4C(=O)N[C@H](C(C)C)C(=O)N5CCC[C@H]5C(=O)N(C)CC(=O)N(C)[C@@H](C(C)C)C(=O)O[C@@H]4C)c3nc-2c(C(=O)N[C@@H]2C(=O)N[C@H](C(C)C)C(=O)N3CCC[C@H]3C(=O)N(C)CC(=O)N(C)[C@@H](C(C)C)C(=O)O[C@@H]2C)c(N)c1=O [DACTINOMYCIN]	341.2 Å²
COc1cc2nc(N(C)CCCNC(=O)C3CCCO3)nc(N)c2cc1OC (stereo unspecified) [ALFLUZOSIN]	193.9 Å²
Cc1c(N)c(=O)n(-c2ccccc2)n1C [AMPYRONE]	142.6 Å²
O=C(O)c1cc(=O)c2cccc(O)c2[nH]1 [XANTHURENIC ACID]	137.7 Å²
COc1ccc(-c2cc(=O)c3c(OC)c(OC)c(OC)cc3o2)cc1OC [SINENSETIN]	186.4 Å²
O=C1OC2(c3ccc(O)cc3Oc3cc(O)ccc32)c2ccccc21 [FLUORESCEIN]	172.3 Å²
CCn1cc(C(=O)O)c(=O)c2cc3c(cc21)OCO3 [OXOLINIC ACID]	149.1 Å²
N[C@@H](Cc1ccc(O)c(O)c1)C(=O)O [LEVODOPA]	145.4 Å²

SMILES	collision cross section (N2)
COc1cc2c(cc1O)CCNC2C (stereo unspecified) [SALSOLINE]	145.8 Å²
O=c1cc(-c2ccc(O)cc2)oc2ccc(O)cc12 [6,4'-DIHYDROXYFLAVONE]	152.7 Å²
O=C(O)c1cc(=O)c2ccccc2o1 [CHROMOCARB]	134 Å²
CC1=C(C/C=C(\C)CCC[C@H](C)CCC[C@H](C)CCCC(C)C)C(=O)c2ccccc2C1=O [PHYTONADIONE]	220 Å²
CCOC(=O)N1CCC(=C2c3ccc(Cl)cc3CCc3cccnc32)CC1 [LORATADINE]	185.8 Å²
CC1COc2c(N3CCN(C)CC3)c(F)cc3c(=O)c(C(=O)O)cn1c23 (stereo unspecified) [OFLOXACIN]	188.5 Å²
COc1cc(C(=O)N2CCOCC2)cc(OC)c1OC [TRIMETOZINE]	164.5 Å²
Nc1ccc(O)c(C(=O)O)c1 [MESALAMINE]	134.7 Å²
C=C[C@H]1CN2CC[C@H]1C[C@@H]2[C@@H](OC(=O)OCC)c1ccnc2ccc(OC)cc12 [QUININE ETHYL CARBONATE]	196.7 Å²
O=C1C(Cl)=C(Cl)C(=O)C(Cl)=C1Cl [CHLORANIL]	148.9 Å²
C=C1C[C@H]2[C@@H]3C=C(C)C4=CC(=O)CC[C@]4(C)[C@H]3CC[C@]2(C)[C@@]1(OC(C)=O)C(C)=O [MELENGESTROL ACETATE]	198.2 Å²
Nc1ccncc1 [FAMPRIDINE]	117.8 Å²
NS(=O)(=O)c1cc2c(cc1Cl)NC(CSCc1ccccc1)=NS2(=O)=O [BENZTHIAZIDE]	186.7 Å²
C=C(C)[C@H]1CN[C@H](C(=O)O)[C@H]1CC(=O)O [KAINIC ACID]	144.2 Å²
CCOC(=O)n1ccn(C)c1=S [CARBIMAZOLE]	134.4 Å²
CC(=O)O[C@H]1CC[C@@]2(C)[C@@H](CC[C@@H]3[C@@H]2CC(=O)[C@]2(C)[C@@H]4[C@H](C[C@@H]32)O[C@]2(CC[C@@H](C)CO2)[C@H]4C)C1 [HECOGENIN ACETATE]	223.4 Å²
Oc1cc(O)c2c(c1)O[C@H](c1ccc(O)c(O)c1)[C@H](O)C2 [EPICATECHIN]	161.5 Å²
C[C@H]1O[C@H](O[C@H]2[C@H](O)[C@@H](O)[C@@H](O[C@H]3[C@H](O)[C@@H](O)C(O)O[C@@H]3CO)O[C@@H]2CO)[C@H](O)[C@@H](O)[C@@H]1N[C@H]1C=C(CO)[C@@H](O)[C@H](O)[C@H]1O (stereo partly specified) [ACARBOSE]	231 Å²
CCCCC(=O)O[C@H]1CC[C@H]2[C@@H]3CCc4cc(O)ccc4[C@H]3CC[C@]12C [ESTRADIOL VALERATE]	171 Å²
CC(=O)OCC(=O)[C@@]12OC(C)(C)O[C@@H]1C[C@H]1[C@@H]3C[C@H](F)C4=CC(=O)C=C[C@]4(C)[C@@]3(F)[C@@H](O)C[C@@]12C [FLUOCINONIDE]	229.9 Å²

Same assay, conditions: [M+Na]+; instrument: TW; calibrated with polyalanine and drug standards

SMILES	collision cross section (N2)
COC(=O)CC[C@@H](C)[C@H]1CC[C@H]2[C@@H]3CC[C@@H]4C[C@H](O)CC[C@]4(C)[C@H]3C[C@H](O)[C@]12C [METHYL DEOXYCHOLATE]	199.1 Å²
CC[C@H](C)C(=O)O[C@H]1C[C@@H](C)C=C2C=C[C@H](C)[C@H](CC[C@@H]3C[C@@H](O)CC(=O)O3)[C@H]21 [LOVASTATIN]	202 Å²
C[C@H](CCC(=O)O)[C@H]1CC[C@H]2[C@@H]3C(=O)C[C@@H]4CC(=O)CC[C@]4(C)[C@H]3CC(=O)[C@]12C [DEHYDROCHOLIC ACID]	192.1 Å²
C[C@@H]1O[C@@H](Oc2c(-c3ccc(O)c(O)c3)oc3cc(O)cc(O)c3c2=O)[C@H](O)[C@H](O)[C@H]1O [QUERCITRIN]	205.9 Å²

Same assay, conditions: [M]+; instrument: TW; calibrated with polyalanine and drug standards

SMILES	collision cross section (N2)
CCCCCCCCCCCC[N+](C)(C)Cc1ccccc1 [BENZALKONIUM CHLORIDE C12]	193 Å²
